Source: patent EP4800013A1, “PARG INHIBITOR” (Shanghai Qilu Pharmaceutical Research and Development …, priority 2023, dated 2025)

Tests used:
[1] = Pharmacokinetic evaluation in CD-1 mice (IV and PO); type: in vivo; conditions: male, mouse, plasma; for Vd: read-out: Vss
Description: Using mice as test animals, the compounds of the present disclosure were administered via intravenous bolus and oral injection. Plasma samples were collected at specific time points. Compound concentrations in plasma were determined by LC-MS/MS, and PK parameters were calculated to characterize the pharmacokinetic behavior of the compounds of the present disclosure in plasma.
CD-1 mice, male, supplied by Zhejiang Vital River Laboratory Animal Technology Co., Ltd.
Dosing regimen for CD-1 mice: Both the IV (intravenous) and PO (oral) experimental groups consisted of 3 mice. The IV group was administered at a dose of 1 mg/kg and a volume of 5 mL/kg. The PO group was administered at a dose of 30 mg/kg and a volume of 10 mL/kg. The dosing vehicle was 5% (v/v) DMSO/10% (v/v) Solutol/85% (v/v) saline.
Following administration, 0.025 mL of blood was collected via venipuncture at the following time points: 0.0833 (IV), 0.25, 0.5, 1, 2, 4, 8, and 24 hours. Blood samples were collected into EDTA-K2 tubes and centrifuged at 4°C and 2000 g for 10 minutes to separate plasma, which was stored at -80°C.
Mouse plasma processing: • 1) 15 µL of plasma was mixed with 200 µL of acetonitrile for protein precipitation. The mixture was vortexed and centrifuged for 15 minutes. • 2) The supernatant after processing was diluted with water and analyzed by LC/MS/MS to determine the concentration of the test compound.
Pharmacokinetic parameters were calculated using WinNonlin 6.1. Specifically, Cmax represents maximum plasma concentration, CL represents clearance, Vss represents volume of distribution at steady state, T1/2 represents terminal elimination half-life, MRTInf represents mean residence time, AUC represents area under the plasma concentration-time curve, and F represents bioavailability. Table 18: Pharmacokinetic parameters of the compounds of the present disclosure in CD-1 mice

PXR = molecular target: T1, PXR (Homo sapiens, UniProt O75469); test: PXR activation in stably transfected DPX2 cells (CYP3A4 promoter-driven luciferase reporter); type: cell-based; conditions: 24 or 48 hours, test concentration not given
T1 construct: host or cells: DPX2 (HepG2 stably transfected)
T1 sequence (O75469 1-434): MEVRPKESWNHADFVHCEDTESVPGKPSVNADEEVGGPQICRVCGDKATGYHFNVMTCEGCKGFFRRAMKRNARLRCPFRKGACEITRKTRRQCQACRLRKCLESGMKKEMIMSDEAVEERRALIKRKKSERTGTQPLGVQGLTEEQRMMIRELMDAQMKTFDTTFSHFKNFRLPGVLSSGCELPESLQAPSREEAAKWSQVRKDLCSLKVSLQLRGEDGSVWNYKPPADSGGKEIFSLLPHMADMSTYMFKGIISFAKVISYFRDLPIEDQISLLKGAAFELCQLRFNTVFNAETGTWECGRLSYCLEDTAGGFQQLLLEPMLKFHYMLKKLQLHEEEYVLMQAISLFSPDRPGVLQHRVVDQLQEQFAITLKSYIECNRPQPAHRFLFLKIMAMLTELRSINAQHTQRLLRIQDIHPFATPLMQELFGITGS
Description: The purpose of this study was to evaluate the potential of the compounds of the present disclosure and the comparative compound (WO2023183850A1, compound of formula A) to activate PXR in vitro, thereby inducing drug-metabolizing enzymes.
DPX2 cells (HepG2 cell line stably transfected with PXR and a CYP3A4 promoter-driven luciferase reporter gene) were purchased from Puracyp Inc (Carlsbad, CA). Fetal bovine serum was purchased from Acantor.
• 1) DPX2 cells were cultured in medium containing 10% fetal bovine serum (FBS). • 2) DPX2 cells were cultured in a T-75 flask in a cell culture incubator at 37°C with 5% CO2 and 95% relative humidity. The cells were subjected to trypsinization when they reached 80% to 90% confluence. • 3) The medium was aspirated from the T-75 flask, and the cells were rinsed with 10 mL of PBS. After removing PBS, 3 to 5 mL of trypsin was added. The flask was incubated at 37°C for approximately 5 minutes or until cell detachment and floating were observed. […] After 24 or 48 hours of cell treatment, quantification of PXR activation was performed. • 8) CellTiter Fluor™ Cell Viability Assay Kit and One-Glo Luciferase Assay Kit were equilibrated to room temperature. […] 25 µL of the prepared cell viability assay system was gently added to each well, followed by incubation for 30 minutes in the cell culture incubator at 37°C. • 10) The 384-well plate was removed from the cell culture incubator, and fluorescence of individual wells was measured using a microplate reader in fluorescence mode with excitation at 400 nm and emission at 505 nm. Subsequently, 25 µL of the prepared luciferase assay system was gently added to each well, followed by vortexing and incubation at room temperature for 5 minutes, and luminescence of individual wells was measured using a microplate reader.
Cell viability percentage was calculated using the following formula: Cell viability (%) = Isample / Ivehicle × 100, where Isample is the mean fluorescence intensity of treated wells; Ivehicle is the mean fluorescence intensity of cells treated with 0.1% DMSO. […]

SMILES	AUC ([1]; IV, 1 mg/kg) [µM·h]	MRT inf ([1]; IV, 1 mg/kg) [h]	clearance ([1]; IV, 1 mg/kg) [mL/min/kg]	half-life ([1]; IV, 1 mg/kg) [h]	Vd ([1]; IV, 1 mg/kg) [L/kg]	AUC ([1]; PO, 30 mg/kg) [µM·h]	Cmax ([1]; PO, 30 mg/kg) [nM]	MRT inf ([1]; PO, 30 mg/kg) [h]	half-life ([1]; PO, 30 mg/kg) [h]	Fold activation (PXR)
C[C@H]1CN(c2cc(S(=O)(=O)NC3(C)CC3)cc3c2n2nc(C(F)(F)F)nc2n3-c2nnc(C(F)F)s2)C[C@H](C)N1 [Compound 065W]	1.26	5.6	22	5.2	7.2	18.3	1980	5.7	3.3	1.11
C[C@H]1CN(c2cc(S(=O)(=O)NC3(C)CC3)cc3c2n2nc(C(F)F)nc2n3-c2nnc(C(F)F)s2)C[C@H](C)N1 [Compound 065S]										1.82
CCc1nc2n(-c3nnc(C(F)F)s3)c3cc(S(=O)(=O)NC4(C)CC4)cc(N4C[C@H](C)N[C@@H](C)C4)c3n2n1 [Compound 065R]	0.555	2.3	50	2.2	6.8	11.2	1610	4.6	2.4	1.45
